{
  "source": "patent US6465526B1",
  "about": "“Natural mixture composed of higher primary aliphatic alcohols obtained from bee wax for the treatment of gastric and duodenal ulcers that also present antiinflamatory activity” (Laboratories Dalmer SA, priority 1994, dated 2002)",
  "format_in_all_cases": "in vivo, Sprague Dawley rats",
  "key": {"acid gastric secretion": {"test_system": "acid gastric secretion", "test": "gastric acidity in the model of pilorous ligatured", "conditions": "4 h after pilorous ligature", "protocol": "The results obtained in last examples sugest an action over ulcer induced by acid compounds dependent or independent. With the objective of discard the inhibitory effect over the inhibition of the acid gastric secretion was determined the action of […]. over this acid gastric secretion in the pilorous ligature model. Female Sprague Dawley rats, weighing 150 to 200 g were adapted to laboratory conditions for 15 days with water and food ad libitum. The animals were randomly distributed in different experimental groups and food was deprived 48 h previous to the ligature. […]. was administered intraperitoneally in a 2% Tween 20/water suspension. Cimetidine was dissolved in hot water and administered by the same route as […]. […] Rats were anaesthetized with ether and an incision, in the abdominal region was done, stomachs were extracted and pilorous were ligatured with thread. […], after that, the compound was administered by i.p. route and 3 mL of saline solution were injected by subcutaneous route. Four h later, the animals were sacrificed, intact stomachs were extracted, tweezed by the esophagus. The gastric content was centrifuged at 3000 min^-1 for 10 min and, later on, the volume was measured. The acidity of the gastric juice was measured using 0.1 mol/L NaOH and phenolphtalein as indicator. The comparison between the treated groups and the control one was realized using the non parametric U de Mann Whitney test."}, "[1]": {"test_system": "gastric ulcer induced by alcohol (60%) and indometacine (10 mg/kg)", "test": "gastric ulcer induced by alcohol (60%) and indometacine (10 mg/kg)", "protocol": "The objective of the present work is to determine if the protective effect of […]. against ulcer is dependent of prostaglandins or not. Male Sprague Dawley rats, weighting 150 to 200 g, were adapted to laboratory conditions for 7 days with water and food ad libitum, up to 48 h previous to the experiment, where food is suppressed. The animals were randomly distributed in 4 experimental groups. […]. was administered intraperitoneally in a 2% Tween 20/water suspension, cimetidine was dissolved in hot water and indomethacine in 5% sodium bicarbonate. […] […] after the animals were injected by i.p. route indomethacine was administered at 10 mg/kg by subcutaneous route. Half an hour later, was administered 60% alcohol and, an hour later, the animals were sacrificed. The stomachs were extracted, opened by the bigger curvature and measured the size of the ulcer using a 3× enlargement. Results were expressed in […]. In all cases, the comparison between the treated groups and the control one was realized using the non parametric U de Mann Whitney test."}, "[2]": {"test_system": "pleuresy induced by carragenine", "test": "pleuresy induced by carragenine", "conditions": "for Exudate volume: 1 h before carragenine, 5 h", "protocol": "Pleuresy by carragenine: Male Sprague Dawley rats were used (200-250 g) and adapted to laboratory conditions for 15 days with water and food ad libitum and were deprived of food 12 h previous to the experiment. M.H.A.A.B.W. was administered in a 10 mg/mL acacia gum/water suspension, as well as triacontanol, while indomethacine was dissolved in 5% sodium bicarbonate.\nAll the treatments were administered using gastric gavage one hour previous to the injection of carragenine. Rats were randomly distributed in the following experimental groups: 1) control (vehicle); 2, 3 and 4) M.H.A.A.B.W. at 25, 50 and 100 mg/kg respectively; 5) triacontanol at 50 mg/kg and 6) indomethacine at 10 mg/kg.\nFor the induction of the edema, rats were anesthesized with ether and 0.3 mL of carragenine in 1% of saline solution were injected in the pleural cavity. Five hours later, the animals were sacrificed and the exudate were colected, determining its volume. The percent of inhibition of the edema is calculated using the following formula:\nInhibition (%)=1−(VT)/(VC)×100\nVT=volume of the edema of treated animals\nVC=volume of the edema of control animals"}, "cotton granule": {"test_system": "cotton granule", "test": "model of cotton granule", "conditions": "3 mg/kg orally, 6 days", "protocol": "In order to corroborate the antiinflamatory effect of the […]. are used the pleuresy induced by carragenine and the granule by cotton models, those ones that constitute established models for the evaluation of antiinflamatory drugs. Granule by cotton: Male Sprague Dawley rats, weighing 200 to 250 g, were adapted to laboratory conditions in the same way as the last experiment. […]. was administered orally in a 2% Tween 20/water suspension, while administered orally in a 5% sodium bicarbonate. […] Rats were randomly distributed in 5 experimental groups: 1) control (vehicle); 2, 3, and 4) […]. at 25, 50 and 100 mg/kg respectively and 5) indomethacine at 3 mg/kg. Rats were, previously, anaesthetized with ether, doing an incision in the dorsal region. The […] cotton pellet of 50 mg was sub-cutaneously and applied with a local […] finally the injured is closed. […] The percent of inhibition was […] taking as reference the weight of the granule formed in the control group."}, "[3]": {"conditions": "25 mg/kg i.p., indomethacine 10 mg/kg s.c. + 60% alcohol"}},
  "note": "Marks after values point to notes of the source that are not given here.",
  "data": [
    {"compound": "CN/C(=N/CCSCc1nc[nH]c1C)NC#N", "note": "[Cimetidine, cimetidine]", "values": [
      {"measurement": "Acidity", "setting": "acid gastric secretion; 25 mg/kg i.p.", "result": "0,080 +/− 0,009* meq H^+/mL"},
      {"measurement": "Gastric juice volume", "setting": "acid gastric secretion; 25 mg/kg i.p.", "result": "5,87 +/− 0,63* mL"},
      {"measurement": "Acidity", "setting": "acid gastric secretion; 50 mg/kg i.p.", "result": "0,083 +/− 0,006** meq H^+/mL"},
      {"measurement": "Gastric juice volume", "setting": "acid gastric secretion; 50 mg/kg i.p.", "result": "5,83 +/− 0,38** mL"},
      {"measurement": "Inhibition", "setting": "[1]; [3]", "result": 71.2, "unit": "%"},
      {"measurement": "Ulcer", "setting": "[1]; [3]", "result": "14.6 +/− 5.64* mm"}
    ]},
    {"compound": "COc1ccc2c(c1)c(CC(=O)O)c(C)n2C(=O)c1ccc(Cl)cc1", "note": "[Indometacine, indomethacine]", "values": [
      {"measurement": "Inhibition", "setting": "[2]; 10 mg/kg oral", "result": 59.6, "unit": "%"},
      {"measurement": "Exudate volume", "setting": "[2]; 10 mg/kg oral", "result": "0.50 ± 0.15", "unit": "mL"},
      {"measurement": "Ulcer", "setting": "[1]; indometacine alone (10 mg/kg s.c.), no alcohol", "result": 0, "unit": "mm"},
      {"measurement": "Inhibition", "setting": "cotton granule", "result": 69.3, "unit": "%"},
      {"measurement": "Weight of granule", "setting": "cotton granule", "result": "79 + 0.02 ** mg."}
    ]},
    {"compound": "CCCCCCCCCCCCCCCCCCCCCCCCCCCCCCO", "note": "[Triacontanol, 1-triacontanol]", "values": [
      {"measurement": "Inhibition", "setting": "[2]; 100 mg/kg oral (maximum dose assayed)", "result": 27.4, "unit": "%"},
      {"measurement": "Exudate volume", "setting": "[2]; 100 mg/kg oral", "result": "0.96 ± 0.30", "unit": "mL"}
    ]}
  ]
}
